Assay results as given in US7524930B2, “Tumor antigen” (Green Peptide Co., Ltd, priority 2003, dated 2009).
Peptide text beside a SMILES is read from it.

How the values were obtained:
[1] = tested on: peripheral blood mononuclear cells derived from a cancer patient; assay type: cell-based, human
Description: Moreover, CTL-activating ability of these 19 peptides was directly examined in a ^51Cr-releasing test using toxicity to the target cells as an indicator. Specifically, the above-described PBMC, in which CTL was induced, was further recultured to proliferate in the presence of autologous APC, IL-2, and a corresponding peptide. At about day 21 to 28 after the start of reculturing, PBMC was collected and cytotoxicity thereof was tested again by measuring IFN-γ and by a 6-h ^51Cr-releasing test. PBMC of the cancer patient, which was stimulated by these peptides, lysed the HLA-A2^+ tumor cells. However, the autologous EBV-B cells and the T cells stimulated by PHA, both of which were derived from normal cells and were expressing HLA-A2, and the HLA-A2^− tumor cell RERF-LC-MS, were not lysed.

[2] = tested on: Panc-1 cells and YPK-3 cells; assay: 51Cr-releasing test of CTLs induced by KM-PA-2 peptides (Example 8); assay type: cell-based, human; settings: result in words; for Lysis of HLA-A2- tumor cell and normal cells by peptide-induced CTLs: PaCa-2, EBV-B cell line OKAB2, PHA-stimulated T cells; for Lysis of HLA-A2+ tumor cells by peptide-induced CTLs: Panc-1 cells and YPK-3 cells
From the text: The ability of the synthesized peptide to induce CTL from the peripheral blood mononuclear cells of the colon cancer patient, from whom OK-CTLp was obtained, was examined in the same way as that in Example 6. As a result, as shown in FIGS. 20A-20B, PBMC that was stimulated in vitro using any one of peptides P33 to P41 (SEQ ID NO:33 to SEQ ID NO:41) derived from KM-PA-2 and peptides P42 to P44 (SEQ ID NO:42 to SEQ ID NO:44) derived from KM-PA-4, produced IFN-γ through recognition of the T2 cells (left-hand figure of FIGS. 20A-20B,) which were pulsed with the peptide corresponding to that used for stimulation of the PBMC, and the Panc-1 cell (right-hand of FIGS. 20A-20B,) which is the HLA-A2^+ tumor cell. However, the PBMC reacted […] to the HLA-A2^− tumor cell. […] In addition, cytotoxicity of these CTLs induced by the peptides was directly confirmed by the ^51Cr-releasing test in the same way as that in Example 6. FIGS. 21A-21C show a representative example of the result. As shown in FIGS. 21A-21C, CTLs induced from PBMC of the cancer patient by P35, P39, or P40 lysed Panc-1 cells and YPK-3 cells, both of which are HLA-A2^+ tumor cells. However, the HLA-A2^− tumor cell PaCa-2, the EBV-B cell line OKAB2, and the T cells stimulated by PHA, was not lysed.

[3] = tested on: OK-CTLp; assay: IFN-γ production by OK-CTLp against COS-7 cells cotransfected with cDNA clone and HLA-A0207 cDNA (ELISA); assay type: cell-based, human; settings: result in words
Description: 200 ng of the above-described plasmid DNA pool or clones of Panc-1 cell cDNA library was mixed with 200 ng of the cDNA of HLA-A0207 in 100 μl of Opti-MEM (Invitrogen Corp.) for 30 min. 50 μl of this mixture was added to COS-7 cells (5×10^3) and incubated for 6 h in a 96-well U-bottom type microculture plate (Nunc Corp.) for co-tranduction. Then, RPMI-1640 culture medium containing 10% FCS was added to and culturing was carried out for 2 days, followed by the addition of OK-CTLp (5×10^4) to each well. After a further 18 h incubation, 100 μl of the supernatant was collected and IFN-γ production was measured thereon by ELISA. […]
From the genes encoding the tumor antigens (Biochim. Biophys. Res. Commun., 281:936-944, 2001), which were detected by the SEREX (Serological Analysis of Recombinant cDNA Expression Libraries) method (Proc. Natl Acad. Sci. USA, 92:11910-[…], 1995) and already reported, two tumor antigen genes, KM-PA-2 and KM-PA-4; which can activate HLA-A2-restricted CTL, were found by using the same method as that of Example 2. […] However, among 1500 or more kinds of tumor antigens detected by this method, those identified as tumor antigens capable of inducing both cell-mediated immunity and humoral immunity are only MAGE-1, tyrosinase, and NY-ESO-1. […]

[4] = tested on: human peripheral blood mononuclear cells (PBMC); assay: CTL induction by peptide from PBMC of HLA-A2-positive cancer patients and healthy individuals, IFN-γ against peptide-pulsed T2 cells (Example 6); assay type: cell-based; settings: for INF-γ production: peptide-pulsed T2 cells
Description: For six peptides (P21, P22, P24, P26, P30, and P32) with a purity of 95% or higher among peptides from P20 to P32 derived from gene 7 and CPSF among the tumor antigen peptide obtained in Example 4, the activity to induce CTL in vitro from human peripheral blood mononuclear cells (PBMC) was examined using IFN-γ production as an indicator. PBMC used was prepared from each peripheral blood of sixteen HLA-A2-positive cancer patients (4 patients with pancreatic cancer, seven patients with stomach cancer, and 5 patients with colon cancer) and six healthy individuals. Specifically, 1×10^5 PBMC was added to each well of 96-well U-bottom type microculture plate (Nunc Corp.) and incubated together with 10 μM of each of the above-described peptides in 200 μl culture medium. The culture medium consisted of 45% RPMI-1640, 45% AIM-V (Invitrogen Corp.,) 10% fetal calf serum (FCS), 100U/ml of human interleukin-2, and […] MEM nonessential amino acid solution (Invitrogen Corp.). At day 4 and day 7 after the start of culturing, half of the culture medium was removed and replaced with the above-described composition containing each corresponding peptide. At day 10 after the start of culturing, the cells were collected and washed, followed by reacting with T2 cells, which were pulsed with each corresponding peptide, to measure the amount of IFN-γ produced.

[5] = tested on: Panc-1 pancreatic adenocarcinoma cell (HLA-A2); assay: 6-h 51Cr-releasing test of peptide-stimulated PBMC against Panc-1 (Example 6); assay type: cell-based, human
Description: Meanwhile, the above-described cells cultured for 10 days after stimulation by the peptide were further cultured for 10 days. The cytotoxicity of the obtained cells against the Panc-1 pancreatic adenocarcinoma cell (HLA-A2) was measured by the standard 6-h ^51Cr-releasing test in an E/T ratio of 10:1. The results obtained are presented as % specific lysis (table 7). Together with this step, cytotoxicity against SSTW-9 tumor cell as the HLA-A2^− tumor cell was measured to use as a background that was subtracted from the above-described result.

[6] = tested on: OK-CTLp or OK-CTL clone; assay: Recognition of peptide-pulsed T2 cells by OK-CTLp or OK-CTL clone (IFN-γ ELISA); assay type: cell-based, human

CC[C@H](C)[C@H](NC(=O)[C@@H](NC(=O)[C@@H](N)CCCNC(=N)N)[C@@H](C)CC)C(=O)N[C@@H](Cc1ccc(O)cc1)C(=O)N[C@@H](CC(=O)O)C(=O)N[C@@H](CCCNC(=N)N)C(=O)N[C@@H](CCCCN)C(=O)N[C@@H](Cc1ccccc1)C(=O)N[C@@H](CC(C)C)C(=O)O [Peptide P14] (H-RIIYDRKFL-OH)
Cytotoxicity of peptide-stimulated PBMC to the autologous EBV-B cells [1]: showed cytotoxicity

CC[C@H](C)[C@H](N)C(=O)N[C@H](C(=O)N[C@@H](Cc1ccc(O)cc1)C(=O)N[C@@H](CC(=O)O)C(=O)N[C@@H](CCCNC(=N)N)C(=O)N[C@@H](CCCCN)C(=O)N[C@@H](Cc1ccccc1)C(=O)N[C@@H](CC(C)C)C(=O)N[C@@H](CCSC)C(=O)O)[C@@H](C)CC [Peptide P15] (H-IIYDRKFLM-OH)
Cytotoxicity of peptide-stimulated PBMC to the autologous EBV-B cells [1]: showed cytotoxicity

CC(C)C[C@H](NC(=O)CN)C(=O)N[C@@H](CC(C)C)C(=O)N[C@@H](Cc1ccccc1)C(=O)N[C@@H](CC(C)C)C(=O)N[C@@H](Cc1c[nH]cn1)C(=O)N[C@H](C(=O)N[C@@H](CCCNC(=N)N)C(=O)N[C@H](C(=O)O)[C@@H](C)O)[C@@H](C)O [Peptide P17] (H-GLLFLHTRT-OH)
Cytotoxicity of peptide-stimulated PBMC to the autologous EBV-B cells [1]: showed cytotoxicity

CC(C)C[C@H](NC(=O)[C@H](CCC(N)=O)NC(=O)[C@@H](N)CCC(N)=O)C(=O)N[C@@H](CS)C(=O)N[C@H](C(=O)N[C@@H](Cc1ccc(O)cc1)C(=O)N[C@@H](Cc1c[nH]c2ccccc12)C(=O)N[C@H](C(=O)N[C@H](C(=O)O)C(C)C)[C@@H](C)O)C(C)C [Peptide P19] (H-QQLCVYWTV-OH)
Cytotoxicity of peptide-stimulated PBMC to the autologous EBV-B cells [1]: showed high cytotoxicity

DLLQNPLLV (Designed peptide having an ability to activate HLA-A2 restricted Cytotoxic T lymphocytes) [Peptide P39, KM-PA-2 585-593]
Lysis of HLA-A2- tumor cell and normal cells by peptide-induced CTLs [2]: not lysed | Lysis of HLA-A2+ tumor cells by peptide-induced CTLs [2]: lysed

KM-PA-2: tumor antigen gene from CFPAC-1 (SEREX), 2060 bp [AB060694], homologous to KIAA0124 / Bop1
Recognition by OK-CTLp of COS-7 cells cotransfected with the cDNA and HLA-A0207 (IFN-γ production) [3]: induced IFN-γ production from OK-CTLp

KM-PA-4: tumor antigen gene from CFPAC-1 (SEREX), 1841 bp, identical to coactosin-like protein (CLP)
Recognition by OK-CTLp of COS-7 cells cotransfected with the cDNA and HLA-A0207 (IFN-γ production) [3]: induced IFN-γ production from OK-CTLp

LLQNPLLVPV (Designed peptide having an ability to activate HLA-A2 restricted Cytotoxic T lymphocytes) [Peptide P40, KM-PA-2 586-595]
Lysis of HLA-A2- tumor cell and normal cells by peptide-induced CTLs [2]: not lysed | Lysis of HLA-A2+ tumor cells by peptide-induced CTLs [2]: lysed

QLGQGNLKV [Peptide P23]
INF-γ production ([4]; PBMC of colon cancer patient 12): 71 pg/mL | INF-γ production ([4]; PBMC of colon cancer patient 13): 138 pg/mL | INF-γ production ([4]; PBMC of colon cancer patient 14): 48 pg/mL | INF-γ production ([4]; PBMC of colon cancer patient 15): 14 pg/mL | INF-γ production ([4]; PBMC of colon cancer patient 16): 0 pg/mL | INF-γ production ([4]; PBMC of healthy individual HD1): 0 pg/mL | INF-γ production ([4]; PBMC of healthy individual HD2): 13 pg/mL | INF-γ production ([4]; PBMC of healthy individual HD3): 8 pg/mL | INF-γ production ([4]; PBMC of healthy individual HD4): 6 pg/mL | INF-γ production ([4]; PBMC of healthy individual HD5): 83 pg/mL | INF-γ production ([4]; PBMC of healthy individual HD6): 45 pg/mL | INF-γ production ([4]; PBMC of pancreatic cancer patient 1): 0 pg/mL | INF-γ production ([4]; PBMC of pancreatic cancer patient 2): 41 pg/mL | INF-γ production ([4]; PBMC of pancreatic cancer patient 3): 0 pg/mL | INF-γ production ([4]; PBMC of pancreatic cancer patient 4): 72 pg/mL | INF-γ production ([4]; PBMC of stomach cancer patient 5): 0 pg/mL | INF-γ production ([4]; PBMC of stomach cancer patient 6): 0 pg/mL | INF-γ production ([4]; PBMC of stomach cancer patient 7): 46 pg/mL | INF-γ production ([4]; PBMC of stomach cancer patient 8): 0 pg/mL | INF-γ production ([4]; PBMC of stomach cancer patient 9): 0 pg/mL | INF-γ production ([4]; PBMC of stomach cancer patient 10): 0 pg/mL | INF-γ production ([4]; PBMC of stomach cancer patient 11): 0 pg/mL | Patients in whom peptide-specific HLA-A2-restricted CTL were induced from PBMC ([4]; sixteen HLA-A2-positive cancer patients): 25% | % specific lysis ([5]; PBMC of colon cancer patient 12, Panc-1, E/T 10:1): 18% | % specific lysis ([5]; PBMC of colon cancer patient 13, Panc-1, E/T 10:1): 10% | % specific lysis ([5]; PBMC of pancreatic cancer patient 2, Panc-1, E/T 10:1, SSTW-9 background subtracted): 53% | % specific lysis ([5]; PBMC of pancreatic cancer patient 4, Panc-1, E/T 10:1): 10% | % specific lysis ([5]; PBMC of stomach cancer patient 7, Panc-1, E/T 10:1): 10% | IFN-γ production ([6]; concentration of peptide 0.1 μM): 6360 pg/mL | IFN-γ production ([6]; concentration of peptide 1 μM): 0 pg/mL | IFN-γ production ([6]; concentration of peptide 10 μM): 345 pg/mL | IFN-γ production ([6]; concentration of peptide 50 μM): 160 pg/mL

WAQEDPNAV (Designed peptide having an ability to activate HLA-A2 restricted Cytotoxic T lymphocytes) [Peptide P35, KM-PA-2 172-180]
Lysis of HLA-A2- tumor cell and normal cells by peptide-induced CTLs [2]: not lysed | Lysis of HLA-A2+ tumor cells by peptide-induced CTLs [2]: lysed
